Experiments:
[1] = tested on: sensory evaluation team; assay: Saltiness threshold analysis by triangle test method; assay type: in vivo; conditions: serial 1:1 dilution from 1.0 mg/mL; for saltiness threshold: NaCl as positive control
Procedure: The threshold analysis was conducted by triangle test method. […] A mass concentration of the penultimate solution was recorded as the salinity threshold for the synthetic peptide.

[2] = Electronic tongue saltiness measurement of peptide / NaCl solutions
Procedure: In order to understand the flavor characteristics of DIQPEER synthetic peptide solutions of different concentrations in NaCl solutions of different concentrations, 0.5 g/L, 1.0 g/L, 1.5 g/L, and 2.0 g/L DIQPEER synthetic peptide aqueous solutions were added into 3.5 g/L, 3.0 g/L, 2.5 g/L, and 2.0 g/L NaCl solutions, respectively, for electronic tongue measurement.
As the concentration of synthetic peptides increased, the concentration of NaCl solution decreased and the saltiness enhancing effect weakened. Without affecting the overall solution taste, DIQPEER could replace about 50% of NaCl compared to the saltiness value of 4.0 g/L NaCl solution.

Compound | saltiness threshold [1] [mM] | Threshold ([1]; saltiness threshold) [mmol/L] | saltiness intensity of peptide aqueous solutions ([2]; 0.5, 1.0, 1.5 and 2.0 g/L DIQPEER, FIG. 7) | salinity of the solution (synergy with NaCl) ([2]; 1.0 g/L synthetic peptide added to 3.0 g/L NaCl solution, FIG. 8) | saltiness enhancement (increase of saltiness value) ([2]; 1.0 g/L synthetic peptide added to 3.0 g/L NaCl solution, compared with saltiness value of 4.0 g/L NaCl solution) [%] | share of NaCl that can be replaced ([2]; compared to the saltiness value of 4.0 g/L NaCl solution)
[Cl-].[Na+] [NaCl, reference compound] | 1.07 |  |  |  |  | 
DIQPEER | 0.282 | 0.282 | saltiness intensity increased with the increase of the concentration | increased significantly | 69.59 | about 50%

Reference: patent US12426614B2, “Lentinula edodes-derived saltiness enhancing peptide, method for preparing the same and use thereof” (Shanghai Academy of Agricultural Sciences, priority 2023, dated 2025)
